Measured values from ChEMBL document CHEMBL1153221, “The identification of structurally novel, selective, orally bioavailable positive modulators of mGluR2” (Bioorg Med Chem Lett, 2010).
Converted amounts (≈) assume the structure as drawn. The source made the active and inactive calls. The rule behind the calls is not given here.

Assays:
[1] = target: T1, Metabotropic glutamate receptor 2 (Homo sapiens, UniProt Q14416); test: Positive modulation of human mGluR2 expressed in CHO cells co-expressing Ga16 G-protein assessed as glutamate-induced response by FLIPR assay; format: cell-based
Target sequence in this assay (Q14416 whole entry): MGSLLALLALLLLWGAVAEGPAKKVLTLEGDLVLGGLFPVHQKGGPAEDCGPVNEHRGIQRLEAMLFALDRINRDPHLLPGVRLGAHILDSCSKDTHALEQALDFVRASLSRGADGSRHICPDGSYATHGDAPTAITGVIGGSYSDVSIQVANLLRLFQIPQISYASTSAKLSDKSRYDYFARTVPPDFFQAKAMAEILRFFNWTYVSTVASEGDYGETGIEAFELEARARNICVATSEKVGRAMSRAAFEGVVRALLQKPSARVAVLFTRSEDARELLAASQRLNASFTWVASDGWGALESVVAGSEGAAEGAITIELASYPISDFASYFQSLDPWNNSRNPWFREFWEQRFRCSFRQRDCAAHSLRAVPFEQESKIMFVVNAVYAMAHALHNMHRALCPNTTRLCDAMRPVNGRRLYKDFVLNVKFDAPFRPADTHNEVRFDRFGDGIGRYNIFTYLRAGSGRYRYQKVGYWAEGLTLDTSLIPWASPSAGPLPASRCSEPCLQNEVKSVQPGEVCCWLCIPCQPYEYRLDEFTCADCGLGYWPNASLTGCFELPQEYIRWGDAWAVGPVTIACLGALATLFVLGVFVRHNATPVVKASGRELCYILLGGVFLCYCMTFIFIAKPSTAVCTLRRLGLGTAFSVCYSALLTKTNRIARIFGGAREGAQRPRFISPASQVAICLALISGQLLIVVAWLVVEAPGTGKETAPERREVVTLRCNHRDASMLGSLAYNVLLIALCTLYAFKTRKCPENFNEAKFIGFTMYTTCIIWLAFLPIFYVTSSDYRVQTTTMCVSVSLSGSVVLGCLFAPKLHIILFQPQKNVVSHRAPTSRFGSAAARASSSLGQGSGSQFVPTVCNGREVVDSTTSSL

[2] = target: T1, Metabotropic glutamate receptor 2; test: Agonist activity at human mGluR2 expressed in CHO cells co-expressing Ga16 G-protein assessed as glutamate-induced response by FLIPR assay; format: functional, cell-based
Target sequence in this assay (Q14416 whole entry): as above

[3] = target: D(2) dopamine receptor (Homo sapiens, UniProt P14416); test: Antagonist activity at human D2 receptor expressed in CHO cells co-expressing G0 by [35S]GTPgammaS binding assay; format: functional, cell-based
D(2) dopamine receptor, sequence (P14416 whole entry): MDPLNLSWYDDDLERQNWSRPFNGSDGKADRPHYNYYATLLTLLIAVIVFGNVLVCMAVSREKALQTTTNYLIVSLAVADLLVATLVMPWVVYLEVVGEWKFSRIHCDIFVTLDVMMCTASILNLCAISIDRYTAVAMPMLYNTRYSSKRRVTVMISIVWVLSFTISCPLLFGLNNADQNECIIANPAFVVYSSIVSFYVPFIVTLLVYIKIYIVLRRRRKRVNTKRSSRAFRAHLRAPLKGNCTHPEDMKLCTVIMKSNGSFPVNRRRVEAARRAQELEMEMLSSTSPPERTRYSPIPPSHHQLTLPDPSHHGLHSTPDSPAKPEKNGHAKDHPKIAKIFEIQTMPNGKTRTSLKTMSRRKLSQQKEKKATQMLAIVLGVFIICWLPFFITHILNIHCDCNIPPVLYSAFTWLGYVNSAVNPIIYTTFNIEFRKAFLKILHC

[4] = target: D(3) dopamine receptor (Homo sapiens, UniProt P35462); test: Antagonist activity at human D3 receptor expressed in CHO cells co-expressing G0 by [35S]GTPgammaS binding assay; format: functional, cell-based
D(3) dopamine receptor, sequence (P35462 whole entry): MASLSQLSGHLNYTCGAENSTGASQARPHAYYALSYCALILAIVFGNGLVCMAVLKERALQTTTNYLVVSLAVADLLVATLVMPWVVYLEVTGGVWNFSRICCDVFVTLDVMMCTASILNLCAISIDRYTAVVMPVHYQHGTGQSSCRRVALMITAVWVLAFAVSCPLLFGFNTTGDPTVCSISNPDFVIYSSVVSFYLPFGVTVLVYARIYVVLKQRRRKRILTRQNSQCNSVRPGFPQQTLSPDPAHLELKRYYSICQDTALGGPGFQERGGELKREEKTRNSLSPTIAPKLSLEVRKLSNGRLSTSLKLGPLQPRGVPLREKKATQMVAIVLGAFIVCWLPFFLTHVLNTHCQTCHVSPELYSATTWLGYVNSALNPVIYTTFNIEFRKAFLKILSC

[5] = target: T2, D(4) dopamine receptor (Homo sapiens, UniProt P21917); test: Antagonist activity at human D4 receptor expressed in HEK293 cells co-expressing Gqo5 G-protein by FLIPR assay; format: functional, cell-based
T2 sequence (P21917 whole entry): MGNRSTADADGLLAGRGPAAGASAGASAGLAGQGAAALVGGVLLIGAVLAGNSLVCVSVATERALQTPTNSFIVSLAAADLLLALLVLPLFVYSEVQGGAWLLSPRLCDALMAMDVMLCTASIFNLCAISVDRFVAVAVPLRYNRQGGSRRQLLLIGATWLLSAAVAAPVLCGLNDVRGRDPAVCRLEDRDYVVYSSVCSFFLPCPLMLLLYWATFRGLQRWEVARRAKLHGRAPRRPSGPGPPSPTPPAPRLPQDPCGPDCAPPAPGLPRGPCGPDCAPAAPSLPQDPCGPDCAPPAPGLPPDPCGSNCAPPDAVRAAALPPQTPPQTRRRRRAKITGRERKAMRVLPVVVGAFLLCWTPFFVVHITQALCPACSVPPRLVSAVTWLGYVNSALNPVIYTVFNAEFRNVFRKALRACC

[6] = Inhibition of field excitatory postsynaptic potential in Wistar rat medial perforant path dentate gyrus after 20 mins by electrophysiological assay; format: functional, tissue-based
[7] = Inhibition of field excitatory postsynaptic potential in Wistar rat medial perforant path dentate gyrus after 20 mins by electrophysiological assay in presence of 10 uM GSK1331268
[8] = target: T1, Metabotropic glutamate receptor 2; test: Positive modulation of human mGluR2 expressed in CHO cells co-expressing Ga16 G-protein assessed as glutamate-induced response by FLIPR assay relative to glutamate; format: cell-based
Target sequence in this assay (Q14416 19-872 limits assumed): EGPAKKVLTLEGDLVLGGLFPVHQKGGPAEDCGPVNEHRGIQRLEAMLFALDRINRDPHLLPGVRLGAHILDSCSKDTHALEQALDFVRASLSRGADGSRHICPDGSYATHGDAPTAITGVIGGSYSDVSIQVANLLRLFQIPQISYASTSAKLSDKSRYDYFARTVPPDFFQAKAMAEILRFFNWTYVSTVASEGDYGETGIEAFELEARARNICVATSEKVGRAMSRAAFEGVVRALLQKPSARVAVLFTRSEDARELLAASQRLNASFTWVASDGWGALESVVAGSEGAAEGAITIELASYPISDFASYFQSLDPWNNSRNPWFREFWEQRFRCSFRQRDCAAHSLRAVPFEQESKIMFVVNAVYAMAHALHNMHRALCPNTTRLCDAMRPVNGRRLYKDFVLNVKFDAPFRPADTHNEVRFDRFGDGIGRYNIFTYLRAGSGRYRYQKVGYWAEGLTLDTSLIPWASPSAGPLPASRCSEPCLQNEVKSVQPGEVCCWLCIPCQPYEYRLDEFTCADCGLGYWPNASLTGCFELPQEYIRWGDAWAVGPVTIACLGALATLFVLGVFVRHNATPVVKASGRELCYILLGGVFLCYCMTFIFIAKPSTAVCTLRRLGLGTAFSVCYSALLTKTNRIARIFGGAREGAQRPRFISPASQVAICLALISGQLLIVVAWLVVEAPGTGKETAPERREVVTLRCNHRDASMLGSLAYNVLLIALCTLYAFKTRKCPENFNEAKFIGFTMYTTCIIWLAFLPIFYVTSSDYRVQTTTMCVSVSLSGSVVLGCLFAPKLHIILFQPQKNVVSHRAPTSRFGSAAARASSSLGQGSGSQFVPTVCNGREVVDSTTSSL

[9] = target: T3, Metabotropic glutamate receptor 1 (Homo sapiens, UniProt Q13255); test: Agonist activity at mGluR1; format: functional
[10] = target: T3, Metabotropic glutamate receptor 1; test: Antagonist activity at mGluR1; format: functional
[11] = target: T4, Metabotropic glutamate receptor 5 (Homo sapiens, UniProt P41594); test: Agonist activity at mGluR5; format: functional
[12] = target: T4, Metabotropic glutamate receptor 5; test: Antagonist activity at mGluR5; format: functional
[13] = target: T4, Metabotropic glutamate receptor 5; test: Positive modulation of mGluR5
[14] = Solubility of the compound; format: physicochemical
[15] = target: Metabotropic glutamate receptor 4 (Homo sapiens) (UniProt Q14833); test: Agonist activity at mGluR4; format: functional
Metabotropic glutamate receptor 4 (Homo sapiens), sequence (Q14833 whole entry): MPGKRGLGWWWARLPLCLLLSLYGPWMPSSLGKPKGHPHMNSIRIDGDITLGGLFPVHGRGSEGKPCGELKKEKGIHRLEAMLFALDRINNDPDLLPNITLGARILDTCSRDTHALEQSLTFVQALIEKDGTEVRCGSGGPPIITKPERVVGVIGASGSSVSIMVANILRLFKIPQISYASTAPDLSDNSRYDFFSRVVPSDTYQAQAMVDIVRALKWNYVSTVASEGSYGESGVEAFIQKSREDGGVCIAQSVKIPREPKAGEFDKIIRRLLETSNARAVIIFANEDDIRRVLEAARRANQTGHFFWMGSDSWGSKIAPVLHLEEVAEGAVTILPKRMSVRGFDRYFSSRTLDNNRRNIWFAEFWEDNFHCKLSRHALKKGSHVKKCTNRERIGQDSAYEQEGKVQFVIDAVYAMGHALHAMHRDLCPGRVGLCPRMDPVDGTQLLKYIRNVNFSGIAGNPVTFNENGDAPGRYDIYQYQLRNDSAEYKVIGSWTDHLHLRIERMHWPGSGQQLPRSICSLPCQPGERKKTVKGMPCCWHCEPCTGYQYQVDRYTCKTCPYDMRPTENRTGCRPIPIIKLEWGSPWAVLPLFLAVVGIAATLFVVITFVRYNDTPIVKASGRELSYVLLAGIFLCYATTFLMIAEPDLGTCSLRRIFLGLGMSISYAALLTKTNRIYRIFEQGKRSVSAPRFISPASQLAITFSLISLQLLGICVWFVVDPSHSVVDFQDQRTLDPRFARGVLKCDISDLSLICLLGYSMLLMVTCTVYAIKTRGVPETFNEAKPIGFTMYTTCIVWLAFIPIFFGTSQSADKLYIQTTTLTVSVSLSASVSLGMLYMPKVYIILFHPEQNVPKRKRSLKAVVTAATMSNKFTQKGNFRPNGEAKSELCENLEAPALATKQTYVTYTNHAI

[16] = target: Metabotropic glutamate receptor 4 (Homo sapiens) (UniProt Q14833); test: Antagonist activity at mGluR4; format: functional
[17] = target: Metabotropic glutamate receptor 4 (Homo sapiens) (UniProt Q14833); test: Positive modulation of mGluR4
[18] = target: T3, Metabotropic glutamate receptor 1; test: Positive modulation of mGluR1
Target sequence in this assay (Q13255 19-1194 limits assumed): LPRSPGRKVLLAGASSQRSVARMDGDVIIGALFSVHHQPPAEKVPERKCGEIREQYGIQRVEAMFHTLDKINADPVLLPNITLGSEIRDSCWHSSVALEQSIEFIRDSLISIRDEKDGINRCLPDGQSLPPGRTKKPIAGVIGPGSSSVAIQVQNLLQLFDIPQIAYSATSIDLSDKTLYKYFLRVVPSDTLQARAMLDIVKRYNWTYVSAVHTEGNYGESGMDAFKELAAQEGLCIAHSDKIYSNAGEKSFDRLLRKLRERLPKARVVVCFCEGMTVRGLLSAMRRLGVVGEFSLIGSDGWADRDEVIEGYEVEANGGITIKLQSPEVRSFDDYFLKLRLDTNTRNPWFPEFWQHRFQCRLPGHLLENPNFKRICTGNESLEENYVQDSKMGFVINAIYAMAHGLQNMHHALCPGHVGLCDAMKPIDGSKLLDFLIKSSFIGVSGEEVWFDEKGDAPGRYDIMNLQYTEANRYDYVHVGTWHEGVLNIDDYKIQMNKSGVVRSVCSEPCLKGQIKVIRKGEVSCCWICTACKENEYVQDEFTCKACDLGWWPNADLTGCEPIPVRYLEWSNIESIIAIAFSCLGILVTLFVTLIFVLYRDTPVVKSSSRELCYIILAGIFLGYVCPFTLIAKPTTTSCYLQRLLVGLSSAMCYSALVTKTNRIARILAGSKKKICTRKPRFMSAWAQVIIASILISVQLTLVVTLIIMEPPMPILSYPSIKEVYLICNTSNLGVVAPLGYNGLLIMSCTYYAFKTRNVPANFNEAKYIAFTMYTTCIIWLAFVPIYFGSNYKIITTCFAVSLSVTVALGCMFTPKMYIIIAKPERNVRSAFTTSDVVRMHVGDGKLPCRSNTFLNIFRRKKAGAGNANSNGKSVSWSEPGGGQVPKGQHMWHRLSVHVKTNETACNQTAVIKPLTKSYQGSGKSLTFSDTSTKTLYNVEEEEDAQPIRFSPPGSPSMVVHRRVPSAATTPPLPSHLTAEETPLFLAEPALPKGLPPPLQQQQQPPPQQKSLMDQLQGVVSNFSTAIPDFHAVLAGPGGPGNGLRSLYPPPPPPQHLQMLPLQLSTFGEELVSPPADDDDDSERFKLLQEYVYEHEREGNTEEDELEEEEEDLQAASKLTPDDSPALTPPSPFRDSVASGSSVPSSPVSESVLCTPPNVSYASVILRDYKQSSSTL

EC50 [1] [nM]	EC50 [2] [nM]	Ki [3] [nM]	Ki [4] [nM]	Ki [5] [nM]	Emax [8] [%]	Compound	other results
501						COCCn1c(CN2CCN(c3ncc(Cl)cn3)CC2)nc2ccccc21	
794	> 15800	> 10000	> 10000	126		Cn1c(CN2CCN(c3ccc(Cl)cc3)CC2)nc2ccccc21	
						COc1ccccc1Oc1ccc(N(Cc2cccnc2)S(=O)(=O)CC(F)(F)F)cc1	pEC50 [6]: 6.864; pEC50 [7]: 7.364
126						FC(F)(F)c1cnc(N2CCN(Cc3nc4ccccc4n3Cc3ccccc3)CC2)c(Cl)c1	
2510						CCCn1c(CN2CCN(c3ncc(C(F)(F)F)cc3Cl)CC2)nc2ccccc21	
158						COCCn1c(CN2CCN(c3ncc(C(F)(F)F)cc3Cl)CC2)nc2ccccc21	
126	2510			251	69	Cn1c(CN2CCN(c3ccc(Cl)cc3F)CC2)nc2ccccc21	
200	6310	25.1	126	100	89	Cn1c(CN2CCC(c3ccccc3)CC2)nc2ccccc21	
126	3980	39.8				Cn1c(CN2CCC(c3ccccc3F)CC2)nc2ccccc21	EC50 [9]: > 15800 nM; EC50 [10]: > 15800 nM; EC50 [11]: > 15800 nM; EC50 [12]: > 15800 nM; EC50 [13]: > 15800 nM; solubility [14]: 31 µg/mL (≈ 95.9 µM)
2000						Cn1c(CN2CCN(c3ncc(C(F)(F)F)cc3Cl)CC2)nc2cc(C(F)(F)F)ccc21	
200	6310	> 10000	> 10000	398	84	Cn1c(CN2CCN(c3ccc(C(F)(F)F)cc3)CC2)nc2ccccc21	
39.8	631	794	1580	2510	70	Cn1c(CN2CCC(c3ncc(C(F)(F)F)cc3Cl)CC2)nc2ccccc21	
15800					100	Cn1c(CN2CCN(c3ccccn3)CC2)nc2ccccc21	
200	2510	79.4	3980	200	84	Cn1c(CN2CCC(c3nsc4ccccc34)CC2)nc2ccccc21	
501	6310	> 10000	> 10000	1000	81	Cn1c(CN2CCN(c3ccc(C(F)(F)F)cn3)CC2)nc2ccccc21	
100	3980	39.8	1580	251	92	Cn1c(CN2CCC(c3cccc(Cl)c3)CC2)nc2ccccc21	
> 3160	> 15800					Cn1c(CN2CCC(c3ccccn3)CC2)nc2ccccc21	
100	2510	126	> 10000	251	94	Cn1c(CN2CCC(c3cccc(C(F)(F)F)c3)CC2)nc2ccccc21	
316	> 15800			631	84	Cn1c(CN2CCN(c3ccccc3C(F)(F)F)CC2)nc2ccccc21	

EC50 [1] [nM]	EC50 [2] [nM]	Ki [3] [nM]	Ki [4] [nM]	Ki [5] [nM]	Emax [8] [%]	Compound	other results
100	2000	251	> 10000	126	110	Cn1c(CN2CCC(c3ccc(C(F)(F)F)cc3)CC2)nc2ccccc21	
316	6310	> 3160	501		94	Cn1c(CN2CCC(c3ccccc3C(F)(F)F)CC2)nc2ccccc21	
> 12600						Cn1c(CN2CCN(c3ccc(C#N)cc3)CC2)nc2ccccc21	
158	3160	398	> 10000	7.94	76	Cn1c(CN2CCC(c3nc4ccccc4s3)CC2)nc2ccccc21	
79.4	5010	15.8	316	63.1	91	Cn1c(CN2CCC(c3ccc(Cl)cc3)CC2)nc2ccccc21	
158						CCn1c(CN2CCN(c3ncc(Cl)cn3)CC2)nc2ccccc21	
126						Cn1c(CN2CCN(c3ncc(C(F)(F)F)cc3Cl)CC2)nc2ccc(F)cc21	
794						CCCn1c(CN2CCN(c3ncc(Cl)cn3)CC2)nc2ccccc21	
316	2000	> 10000	> 10000	794	88	Cn1c(CN2CCN(c3nc4ccccc4s3)CC2)nc2ccccc21	
79.4	2000	5010	5010	631	71	Cn1c(CN2CCN(c3ncc(C(F)(F)F)cc3Cl)CC2)nc2ccccc21	Activity [9]: inactive; Activity [10]: inactive; Activity [11]: inactive; Activity [12]: inactive; Activity [13]: inactive; Activity [15]: inactive; Activity [16]: inactive; Activity [17]: inactive; Activity [18]: inactive
126	1260	> 10000	> 10000	2510	69	Cn1c(CN2CCN(c3ncc(Cl)cn3)CC2)nc2ccccc21	Activity [9]: inactive; Activity [10]: inactive; Activity [11]: inactive; Activity [12]: inactive; Activity [13]: inactive; Activity [15]: inactive; Activity [16]: inactive; Activity [17]: inactive; Activity [18]: inactive
5010	> 15800				100	Cn1c(CN2CCN(c3ccccc3)CC2)nc2ccccc21	
12600						FC(F)(F)c1cnc(N2CCN(Cc3nc4ccccc4[nH]3)CC2)c(Cl)c1	
50.1						Cn1c(CN2CCN(c3ncc(C(F)(F)F)cc3Cl)CC2)nc2cc(C#N)ccc21	
12600						Clc1cnc(N2CCN(Cc3nc4ccccc4[nH]3)CC2)nc1	
794	6310				64	Cn1c(CN2CCN(c3ccccc3F)CC2)nc2ccccc21	
200						Cn1c(CN2CCN(c3ncc(C(F)(F)F)cc3Cl)CC2)nc2cc(F)ccc21	
63.1						CCn1c(CN2CCN(c3ncc(C(F)(F)F)cc3Cl)CC2)nc2ccccc21	
126						Clc1cnc(N2CCN(Cc3nc4ccccc4n3Cc3ccccc3)CC2)nc1	
